Columns and labels:
Settings in all cases: exposure time: 72 h
AM-38 [1] = assay: HSA synergy score (Combenefit); higher = more synergy
Description: (§1)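 The same 6x6 dose matrices of drug pairs on glioma cell lines (72 h, CellTiter-Glo viability normalised to DMSO, triplicate) were scored with Combenefit. The Loewe, Bliss and HSA synergy scores are given; paper thresholds are Loewe 7.8 and Bliss 2.5.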

KNS-42 [2] = assay: as above
Description: as §1

SF268 [3] = assay: as above
Description: as §1

SF539 [4] = assay: as above
Description: as §1

SNB75 [5] = assay: as above
Description: as §1

T98G [6] = assay: as above
Description: as §1

U118 [7] = assay: as above
Description: as §1

U251 [8] = assay: as above
Description: as §1

U87 [9] = assay: as above
Description: as §1

AM38 = assay: Chou-Talalay combination index (dimensionless); higher = less synergy (more antagonism)
Description: (§2)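 Glioma cell lines were treated for 72 h with a 6x6 matrix of two drugs, each in twofold dilutions with the top dose at the single-drug IC50. Viability was read by CellTiter-Glo and normalised to DMSO controls, in triplicate. The Chou-Talalay combination index was computed by the median effect principle; CI < 0.8 means synergy.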

KNS42 = assay: as above
Description: as §2

SF268 [10] = assay: as above
Description: as §2

SF539 [11] = assay: as above
Description: as §2

SNB75 [12] = assay: as above
Description: as §2

T98 = assay: as above
Description: as §2

U118 [13] = assay: as above
Description: as §2

U251 [14] = assay: as above
Description: as §2

U87 [15] = assay: as above
Description: as §2

AM-38 [16] = assay: Bliss synergy score (Combenefit); higher = more synergy; extreme values may be limits of the assay
Description: as §1

KNS-42 [17] = assay: as above
Description: as §1

SF268 [18] = assay: as above
Description: as §1

SF539 [19] = assay: as above
Description: as §1

SNB75 [20] = assay: as above
Description: as §1

T98G [21] = assay: as above
Description: as §1

U118 [22] = assay: as above
Description: as §1

U251 [23] = assay: as above
Description: as §1

U87 [24] = assay: as above
Description: as §1

AM-38 [25] = assay: Loewe synergy score (Combenefit); higher = more synergy; extreme values may be limits of the assay
Description: as §1

KNS-42 [26] = assay: as above
Description: as §1

SF268 [27] = assay: as above
Description: as §1

SF539 [28] = assay: as above
Description: as §1

SNB75 [29] = assay: as above
Description: as §1

T98G [30] = assay: as above
Description: as §1

U118 [31] = assay: as above
Description: as §1

U251 [32] = assay: as above
Description: as §1

U87 [33] = assay: as above
Description: as §1

Row | Structure (SMILES) | HSA synergy score (AM-38 [1]) | HSA synergy score (KNS-42 [2]) | HSA synergy score (SF268 [3]) | HSA synergy score (SF539 [4]) | HSA synergy score (SNB75 [5]) | HSA synergy score (T98G [6]) | HSA synergy score (U118 [7]) | HSA synergy score (U251 [8]) | HSA synergy score (U87 [9]) | Chou-Talalay combination index (AM38) | Chou-Talalay combination index (KNS42) | Chou-Talalay combination index (SF268 [10]) | Chou-Talalay combination index (SF539 [11]) | Chou-Talalay combination index (SNB75 [12]) | Chou-Talalay combination index (T98) | Chou-Talalay combination index (U118 [13]) | Chou-Talalay combination index (U251 [14]) | Chou-Talalay combination index (U87 [15]) | Bliss synergy score (AM-38 [16]) | Bliss synergy score (KNS-42 [17]) | Bliss synergy score (SF268 [18]) | Bliss synergy score (SF539 [19]) | Bliss synergy score (SNB75 [20]) | Bliss synergy score (T98G [21]) | Bliss synergy score (U118 [22]) | Bliss synergy score (U251 [23]) | Bliss synergy score (U87 [24]) | Loewe synergy score (AM-38 [25]) | Loewe synergy score (KNS-42 [26]) | Loewe synergy score (SF268 [27]) | Loewe synergy score (SF539 [28]) | Loewe synergy score (SNB75 [29]) | Loewe synergy score (T98G [30]) | Loewe synergy score (U118 [31]) | Loewe synergy score (U251 [32]) | Loewe synergy score (U87 [33])
1 | C#Cc1cccc(Nc2ncnc3cc(OCCOC)c(OCCOC)cc23)c1 [Erlotinib] + N#CC(c1ccnc(NCCc2cccnc2)n1)c1nc2ccccc2s1 [AS601245] | 0 | 2.81 | 2.63 | 2.83 | 1.2 | 3.77 | 3.12 | 3.14 | 0 | 1.25 | 0.914 | 0.948 | 1.01 | 1.07 | 0.621 | 1.02 | 0.946 | 3 | 0 | 0.447 | 0.0526 | 0.186 | 0 | 0.855 | 0 | 0 | 0 | 0 | 1.56 | 0.12 | 0.448 | 0.0161 | 3.11 | 2.58 | 2.04 | 0
2 | C#Cc1cccc(Nc2ncnc3cc(OCCOC)c(OCCOC)cc23)c1 [Erlotinib] + O=c1[nH]c2ccccc2n1C1CCN(Cc2ccc(-c3[nH]c4cc5ncnc5cc4nc3-c3ccccc3)cc2)CC1 [Akt inhibitor VIII] | 0 | 14 | 10.1 | 9.63 | 13.2 | 6.87 | 17 | 13.6 | 0.0775 | 0.914 | 0.754 | 0.97 | 0.906 | 0.763 | 0.775 | 0.807 | 0.526 | 1.26 | 0 | 7.67 | 1.25 | 0.771 | 10.2 | 0.127 | 4.68 | 12.6 | 0 | 0 | 12.3 | 3.87 | 7.22 | 4.44 | 1.87 | 7.49 | 10.4 | 0
3 | Nc1ccn([C@@H]2O[C@H](CO)[C@@H](O)C2(F)F)c(=O)n1 [Gemcitabine] + C=CCc1cccc(/C=N/NC(=O)CN2CCN(Cc3ccccc3)CC2)c1O [PAC-1] | 0.966 | 22.7 | 3.55 | 3.14 | 5.49 | 3.73 | 1.58 | 1.09 | 0 | 1 | 0.675 | 0.965 | 0.863 | 0.978 | 0.935 | 0.999 | 0.722 | 1.06 | 0 | 0.716 | 0.0746 | 0.236 | 0.278 | 0.518 | 0 | 0.174 | 0 | 0.966 | 21.9 | 0.48 | 0.062 | 0.834 | 0.986 | 0 | 0.777 | 0
4 | Nc1ccn([C@@H]2O[C@H](CO)[C@@H](O)C2(F)F)c(=O)n1 [Gemcitabine] + CCOc1nc(NC(=O)Cc2cc(OC)ccc2OC)cc(N)c1C#N [JNK inhibitor VIII] | 0 | 0.883 | 0.909 | 2.34 | 5.13 | 0.133 | 0.0469 | 0 | 22.2 | 1.14 | 0.946 | 1.03 | 0.933 | 0.913 | 0.958 | 1.03 | 1.16 | 0.631 | 0 | 0.163 | 0.306 | 0.139 | 0.369 | 0.133 | 0 | 0 | 5.17 | 0 | 0.883 | 0.121 | 0.162 | 2.33 | 0.133 | 0.043 | 0 | 22.2
5 | Nc1ccn([C@@H]2O[C@H](CO)[C@@H](O)C2(F)F)c(=O)n1 [Gemcitabine] + CO[C@H]1C[C@@H]2CC[C@@H](C)[C@@](O)(O2)C(=O)C(=O)N2CCCC[C@H]2C(=O)O[C@H]([C@H](C)C[C@@H]2CC[C@@H](O)[C@H](OC)C2)CC(=O)[C@H](C)/C=C(\C)[C@@H](O)[C@@H](OC)C(=O)[C@H](C)C[C@H](C)/C=C/C=C/C=C/1C [Rapamycin] | 0.0506 | 0.15 | 18.5 | 18.2 | 4.52 | 1.52 | 23 | 4.63 | 10 | 0.998 | 1.04 | 0.786 | 0.669 | 0.95 | 1.13 | 0.654 | 0.677 | 0.683 | 0.0506 | 0 | 6.03 | 4.47 | 1.41 | 0 | 2.62 | 0.62 | 1.89 | 0.0506 | 0.0119 | 18.1 | 16.9 | 4.52 | 1.27 | 22 | 4.63 | 10
